Consider six compounds from patent US7001983B1, “Antipathogenic synthetic peptides and compositions comprising them” (priority 1997, dated 2006).

Data set [1] concerns Pseudomonas aeruginosa ATCC 27853. The following applies: for Minimal Inhibitory Concentration P. aeruginosa (ATCC 27853): 100% inhibition of growth after 18–20 h. The protocol: (viii) Antibacterial activity of the peptides.
Antibacterial activity of the mixtures was determined as described in Experimental procedures, section (xii).

For data set [2], the system named is Salmonella typhimurium LT2. As to the kind of experiment: Antibacterial activity (MIC), growth inhibition in LB medium. Type of data set: cell-based. To be noted: 100% inhibition of growth after 18–20 h. The protocol:
(§1) (viii) Antibacterial activity of the peptides. The antibacterial activity of the diastereomers was examined in sterile 96-well plates (Nunc F96 microtiter plates) in a final volume of 100 μL as follows: Aliquots (50 μl) of a suspension containing bacteria at a concentration of 10^6 Colony-Forming Units (CFU)/ml LB (Lauria broth) medium were added to 50 μL of water or 66% pooled normal human serum in PBS, containing the peptide in 2-fold serial dilutions. Growth inhibition was determined by measuring the absorbance at 492 nm with a Microplate autoreader E1309 (Bio-tek Instruments), following incubation for 18–20 h at 37° C. […] The bacteria used were: Escherichia coli D21, Pseudomonas aeruginosa ATCC 27853, Acinetobacter calcoaceticus Ac11, Salmonella typhimurium LT2, Bacillus megaterium Bm11, Micrococcus Iuteus ATCC 9341, Bacillus subtilis ATCC 6051.

The subject of data set [3] is Acinetobacter calcoaceticus Ac11. Type of data set: cell-based. The following applies: 100% inhibition of growth after 18–20 h.
Data set [4] has as its system Escherichia coli D21. Type of data set: cell-based. The following applies: for Minimal Inhibitory Concentration E. coli (D21): 100% inhibition of growth after 18–20 h.
In data set [5] the test system is Bacillus megaterium Bm11. Type of data set: cell-based. The following applies: 100% inhibition of growth after 18–20 h.
For data set [6], the system named is human red blood cells (hRBC). In words: Hemolysis of human red blood cells. Type of data set: cell-based. The following applies: hRBC; for % hemolysis at 50 μM peptide / % hemolysis at 100 μM: 30 min at 37° C. Summed up:
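Washed fresh erythrocytes at 5% v/v final in PBS pH 7.3 exposed to peptide 30 min at 37° C with agitation. Hemoglobin release read as supernatant absorbance at 540 nm after centrifugation, scaled between PBS (0%) and 1% Triton (100%).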

Data set [7] has as its system Micrococcus Iuteus ATCC 9341. In words: Antibacterial activity (MIC), growth inhibition in LB medium. Type of data set: cell-based, Micrococcus luteus. To be noted: 100% inhibition of growth after 18–20 h. The method, then: as §1
Data set [8] has as its system Bacillus subtilis ATCC 6051. Type of data set: cell-based. The following applies: 100% inhibition of growth after 18–20 h.

“And” between values parts separate entries of the source, which are not always exact repeats. Equal entries are not always repeated. Square brackets hold non-standard residues; d marks the D form. Peptide text beside a SMILES is read from it. Some results are limits rather than exact numbers.

Turning to `CC[C@H](C)[C@H](NC(=O)[C@H](CCCCN)NC(=O)[C@H]1CCCN1C(=O)[C@@H](NC(=O)[C@H](CC(C)C)NC(=O)[C@H](C)NC(=O)[C@H](Cc1ccccc1)NC(=O)[C@H](Cc1ccccc1)NC(=O)CNC(=O)[C@H](CCCCN)NC(=O)[C@@H](N)CCCCN)[C@@H](C)CC)C(=O)N[C@H](C(=O)N[C@@H](CO)C(=O)N[C@@H](CO)C(=O)N1CCC[C@H]1C(=O)N[C@@H](CC(C)C)C(=O)N[C@@H](Cc1ccccc1)C(=O)N[C@@H](CCCCN)C(=O)N[C@H](C(=O)N[C@H](CC(C)C)C(=O)N[C@H](CC(C)C)C(=O)N[C@@H](CO)C(=O)N[C@@H](C)C(=O)N[C@H](C(=O)O)C(C)C)[C@@H](C)O)[C@@H](C)CC` [Peptide 6, K^1K^2[D]P^7L^18L^19[1-22]-par], the “Minimal Inhibitory Concentration P. aeruginosa (ATCC 27853)” value in data set [1] stood at 60 µM. For the same compound, the “Minimal Inhibitory Concentration S. typhimurium (LT2)” value in data set [2] is 120 µM. Moreover, in data set [3], the “Minimal Inhibitory Concentration A. calcoaceticus (Ac11)” value was 6 µM. The “Minimal Inhibitory Concentration E. coli (D21)” value in data set [4] turned out to be 15 µM. Further, the “Minimal Inhibitory Concentration B. megaterium (Bm11)” value in data set [5] turned out to be 6 µM. For the same compound, the “% hemolysis at 50 μM peptide” value in data set [6] stood at 0%.

On to `CC[C@H](C)[C@H](NC(=O)[C@H](CCCCN)NC(=O)[C@H]1CCCN1C(=O)[C@@H](NC(=O)[C@H](CC(C)C)NC(=O)[C@H](C)NC(=O)[C@H](Cc1ccccc1)NC(=O)[C@H](Cc1ccccc1)NC(=O)CN)[C@@H](C)CC)C(=O)N[C@H](C(=O)N[C@@H](CO)C(=O)N[C@@H](CO)C(=O)N1CCC[C@H]1C(=O)N[C@@H](CC(C)C)C(=O)N[C@@H](Cc1ccccc1)C(=O)N[C@@H](CCCCN)C(=O)N[C@H](C(=O)N[C@@H](CC(C)C)C(=O)N[C@@H](CC(C)C)C(=O)N[C@@H](CO)C(=O)N[C@@H](C)C(=O)N[C@H](C(=O)NCC(=O)N[C@@H](CO)C(=O)N[C@@H](C)C(=O)N[C@@H](CC(C)C)C(=O)N[C@@H](CO)C(=O)N[C@@H](CO)C(=O)N[C@@H](CO)C(=O)NCC(=O)NCC(=O)N[C@@H](CCC(N)=O)C(=O)N[C@@H](CCC(=O)NCCN)C(=O)NCCN)C(C)C)[C@@H](C)O)[C@@H](C)CC` [Peptide 12, [D]P^7-TApar], for which, in data set [3], the “Minimal Inhibitory Concentration A. calcoaceticus (Ac11)” value was 5 µM. In addition, the “Minimal Inhibitory Concentration E. coli (D21)” value in data set [4] was found to be 10 µM. Besides, in data set [7], the “Minimal Inhibitory Concentration M. luteus (ATCC 9341)” value is 5 µM. The “Minimal Inhibitory Concentration B. megaterium (Bm11)” value in data set [5] worked out at 1.2 µM. For the same compound, the “% hemolysis at 50 μM peptide” value in data set [6] was 49%. In addition, the “Minimal Inhibitory Concentration B. subtilis (ATCC 6051)” value in data set [8] is 2 µM.

Take `CC[C@H](C)[C@H](NC(=O)[C@H](CCCCN)NC(=O)[C@@H]1CCCN1C(=O)[C@@H](NC(=O)[C@H](CC(C)C)NC(=O)[C@H](C)NC(=O)[C@H](Cc1ccccc1)NC(=O)[C@H](Cc1ccccc1)NC(=O)CN)[C@@H](C)CC)C(=O)N[C@H](C(=O)N[C@@H](CO)C(=O)N[C@@H](CO)C(=O)N1CCC[C@H]1C(=O)N[C@@H](CC(C)C)C(=O)N[C@@H](Cc1ccccc1)C(=O)N[C@@H](CCCCN)C(=O)N[C@H](C(=O)N[C@H](CC(C)C)C(=O)N[C@H](CC(C)C)C(=O)N[C@@H](CO)C(=O)N[C@@H](C)C(=O)N[C@H](C(=O)NCC(=O)N[C@@H](CO)C(=O)N[C@@H](C)C(=O)N[C@@H](CC(C)C)C(=O)N[C@@H](CO)C(=O)N[C@@H](CO)C(=O)N[C@@H](CO)C(=O)NCC(=O)NCC(=O)N[C@@H](CCC(N)=O)C(=O)N[C@@H](CCC(=O)NCCN)C(=O)NCCN)C(C)C)[C@@H](C)O)[C@@H](C)CC` [Peptide 14, [D]L^18L^19-TApar]: the “Minimal Inhibitory Concentration A. calcoaceticus (Ac11)” value in data set [3] was 1.5 µM and 2.5 µM. In addition, the “Minimal Inhibitory Concentration E. coli (D21)” value in data set [4] was determined as 3.5 µM. Further, in data set [7], the “Minimal Inhibitory Concentration M. luteus (ATCC 9341)” value amounted to 2.5 µM. Further, the “Minimal Inhibitory Concentration B. megaterium (Bm11)” value in data set [5] turned out to be 0.6 µM. Further, in data set [6], the “% hemolysis at 50 μM peptide” value is recorded as 100%. In addition, in data set [8], the “Minimal Inhibitory Concentration B. subtilis (ATCC 6051)” value worked out at 1.5 µM.

Regarding `CC[C@@H](C)[C@@H](NC(=O)[C@H](CC(C)C)NC(=O)[C@H](C)NC(=O)[C@@H]1CCCN1C(=O)[C@H](CC(C)C)NC(=O)CNC(=O)[C@@H](NC(=O)[C@@H](NC(=O)[C@H](CC(C)C)NC(=O)[C@H](NC(=O)[C@H](CCCCN)NC(=O)[C@H](CC(C)C)NC(=O)[C@H](NC(=O)[C@H](C)NC(=O)CNC(=O)[C@@H](NC(=O)CN)[C@@H](C)CC)C(C)C)C(C)C)[C@@H](C)O)[C@@H](C)O)C(=O)N[C@@H](CO)C(=O)N[C@@H](Cc1c[nH]c2ccccc12)C(=O)N[C@H](C(=O)N[C@H](CCCCN)C(=O)N[C@@H](CCCNC(=N)N)C(=O)N[C@@H](CCCCN)C(=O)N[C@@H](CCCNC(=N)N)C(=O)N[C@@H](CCC(N)=O)C(=O)N[C@@H](CCC(N)=O)C(=O)O)[C@@H](C)CC` [Peptide 19, [D]-V^5V^8I^17K^21-mel-COOH], the “Minimal Inhibitory Concentration A. calcoaceticus (Ac11)” value in data set [3] was 18 µM. Further, the “Minimal Inhibitory Concentration E. coli (D21)” value in data set [4] was 18 µM. The “Minimal Inhibitory Concentration M. luteus (ATCC 9341)” value in data set [7] came out at 50 µM. For the same compound, the “Minimal Inhibitory Concentration B. megaterium (Bm11)” value in data set [5] worked out at 1.2 µM. In addition, the “% hemolysis at 50 μM peptide” value in data set [6] worked out at 0%. In data set [6] (up to 50 μM), the “hemolytic activity up to the maximum concentration tested” value is listed as “practically devoid of hemolytic activity”. In addition, in data set [8], the “Minimal Inhibitory Concentration B. subtilis (ATCC 6051)” value was 8 µM.

`CC(C)C[C@H](NC(=O)[C@H](CCCCN)NC(=O)[C@@H](CC(C)C)NC(=O)[C@@H](CC(C)C)NC(=O)[C@H](CC(C)C)NC(=O)[C@@H](N)CCCCN)C(=O)N[C@@H](CCCCN)C(=O)N[C@H](CC(C)C)C(=O)N[C@@H](CCCCN)C(=O)N[C@H](CC(C)C)C(=O)N[C@@H](CC(C)C)C(=O)N[C@@H](CCCCN)C(N)=O` [Peptide 24, [D]-L^3,4,8,10-K5L7] (H-KL[dL][dL]KLK[dL]K[dL]LK-NH2): the “Minimal Inhibitory Concentration P. aeruginosa (ATCC-27853) 0% Serum” value in data set [1] (0% Serum) was found to be 10 µM. The “Minimal Inhibitory Concentration P. aeruginosa (ATCC-27853) 33% Serum” value in data set [1] (33% pooled human serum) worked out at 10 µM. Moreover, the “Minimal Inhibitory Concentration P. aeruginosa (ATCC 27853)” value in data set [1] stood at 10 µM. Moreover, the “Minimal Inhibitory Concentration A. calcoaceticus (Ac11)” value in data set [3] is 20 µM. Also, the “Minimal Inhibitory Concentration E. coli (D21) 0% Serum” value in data set [4] (0% Serum) is 7 µM. The “Minimal Inhibitory Concentration E. coli (D21) 33% Serum” value in data set [4] (33% pooled human serum) was found to be 7 µM. Besides, the “Minimal Inhibitory Concentration E. coli (D21)” value in data set [4] worked out at 7 µM. For the same compound, the “Minimal Inhibitory Concentration B. megaterium (Bm11)” value in data set [5] amounted to 0.25 µM. Moreover, in data set [6], the “% hemolysis at 100 μM” value is 0%. For the same compound, the “Minimal Inhibitory Concentration B. subtilis (ATCC 6051)” value in data set [8] was determined as 2 µM.

On to `CC(C)C[C@H](NC(=O)[C@H](CCCCN)NC(=O)[C@@H](CC(C)C)NC(=O)[C@@H](CC(C)C)NC(=O)[C@H](CCCCN)NC(=O)[C@@H](N)CCCCN)C(=O)N[C@@H](CCCCN)C(=O)N[C@H](CC(C)C)C(=O)N[C@@H](CCCCN)C(=O)N[C@H](CC(C)C)C(=O)N[C@@H](CCCCN)C(=O)N[C@@H](CCCCN)C(N)=O` [Peptide 25, [D]-L^3,4,8,10-K7L5] (H-KK[dL][dL]KLK[dL]K[dL]KK-NH2; N-terminus assumed), for which the “Minimal Inhibitory Concentration P. aeruginosa (ATCC 27853)” value in data set [1] is more than 200 µM. The “Minimal Inhibitory Concentration A. calcoaceticus (Ac11)” value in data set [3] is 200 µM. In data set [4], the “Minimal Inhibitory Concentration E. coli (D21)” value was found to be 80 µM. In addition, in data set [5], the “Minimal Inhibitory Concentration B. megaterium (Bm11)” value came out at 1 µM. In addition, in data set [6], the “% hemolysis at 100 μM” value was determined as 0%. In data set [8], the “Minimal Inhibitory Concentration B. subtilis (ATCC 6051)” value is 100 µM.
